Source: ChEMBL document CHEMBL1201862, “PubChem BioAssay data set” (2004)
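96-well plates; 48 h exposure; 5 concentrations. Endpoints by linear interpolation between flanking doses. Not reached: highest tested concentration assigned. GI50: concentration for 50% inhibition of growth.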 Calls of active or inactive are those of the source. No stated cut-off is given here; in the data, active = GI50 up to about 1.1 µM and inactive = higher.

Assays:
Experiment in all cases: growth of human tumour cells (NCI), 48 h
LOX IMVI = tested on: LOX IMVI
UO-31 = tested on: UO-31
PC-3 = tested on: PC-3
DU-145 = tested on: DU-145
786-0 = tested on: 786-0
SK-MEL-2 = tested on: SK-MEL-2
RXF 393 = tested on: RXF 393
HOP-62 = tested on: HOP-62
SK-OV-3 = tested on: SK-OV-3
MCF7 = tested on: MCF7
SF-539 = tested on: SF-539
UACC-62 = tested on: UACC-62
Hs-578T = tested on: Hs-578T
A549 = tested on: A549
HOP-92 = tested on: HOP-92
OVCAR-4 = tested on: OVCAR-4
CAKI-1 = tested on: CAKI-1
UACC-257 = tested on: UACC-257
A498 = tested on: A498

Measured: GI50

O=C(O)/C=C/C(=O)Nc1cccc2c1-c1ccccc1C2=O
inactive: LOX IMVI 8.91 µM | UO-31 11.8 µM | PC-3 5.7 µM | DU-145 10.3 µM | 786-0 9.53 µM | SK-MEL-2 3.56 µM | RXF 393 8.2 µM | HOP-62 8.75 µM | SK-OV-3 22.9 µM | MCF7 11.3 µM | SF-539 3.46 µM | UACC-62 6.58 µM | Hs-578T 3.76 µM | A549 20.9 µM | HOP-92 4.06 µM | OVCAR-4 22.9 µM | CAKI-1 4.26 µM | UACC-257 3.75 µM | A498 53 µM

COc1cc(OC)c2c(O)c3c(cc2c1)CC(C)(C)CC3=O
inactive: LOX IMVI > 100 µM | UO-31 > 100 µM | PC-3 > 100 µM | DU-145 > 100 µM | 786-0 > 67.3 µM | SK-MEL-2 > 100 µM | RXF 393 > 100 µM | HOP-62 97.3 µM | SK-OV-3 > 100 µM | MCF7 > 100 µM | SF-539 > 100 µM | UACC-62 90.6 µM | Hs-578T 16.3 µM | A549 > 100 µM | HOP-92 > 100 µM | OVCAR-4 32.1 µM | CAKI-1 > 100 µM | UACC-257 > 100 µM | A498 > 100 µM

CCOc1ccc(-n2c(=O)c3nn4c(=O)n(-c5ccc(OCC)cc5)c(=O)c4nn3c2=O)cc1
inactive: LOX IMVI > 100 µM | UO-31 > 100 µM | PC-3 > 100 µM | DU-145 > 100 µM | 786-0 70.1 µM | SK-MEL-2 39.4 µM | RXF 393 44.6 µM | HOP-62 77.8 µM | SK-OV-3 > 100 µM | MCF7 > 100 µM | SF-539 > 100 µM | UACC-62 > 100 µM | Hs-578T 28.5 µM | A549 > 100 µM | HOP-92 30.9 µM | OVCAR-4 > 100 µM | CAKI-1 > 100 µM | UACC-257 > 100 µM | A498 18.6 µM

COc1ccc(Cc2n[nH]c(Nc3ccc(Br)cc3)nc2=O)cc1OC
inactive: LOX IMVI 69.5 µM | UO-31 > 76.2 µM | PC-3 > 92.5 µM | DU-145 > 100 µM | 786-0 > 100 µM | SK-MEL-2 60.1 µM | RXF 393 > 100 µM | HOP-62 42.9 µM | SK-OV-3 > 100 µM | MCF7 44.6 µM | SF-539 > 100 µM | UACC-62 65.8 µM | Hs-578T 35 µM | A549 > 100 µM | HOP-92 > 100 µM | OVCAR-4 > 100 µM | CAKI-1 > 100 µM | UACC-257 > 100 µM | A498 > 100 µM

O=C(CC(c1ccccc1)N1CCCCC1)c1ccccc1 (stereo not given)
inactive: LOX IMVI 5.66 µM | UO-31 19.2 µM | PC-3 15 µM | DU-145 15.1 µM | 786-0 11.2 µM | SK-MEL-2 19.8 µM | RXF 393 18 µM | HOP-62 17.7 µM | SK-OV-3 17.6 µM | MCF7 2.47 µM | SF-539 19 µM | UACC-62 16.6 µM | Hs-578T 24.8 µM | A549 20.5 µM | HOP-92 15 µM | OVCAR-4 18.4 µM | CAKI-1 15.7 µM | UACC-257 14.4 µM | A498 15.6 µM

COc1ccc(/N=N/C(=NNC(=O)c2ccc(C)cc2)c2ccc(N(C)C)cc2)cc1
inactive: LOX IMVI 34.8 µM | UO-31 52.2 µM | PC-3 57.7 µM | DU-145 25.1 µM | 786-0 39.1 µM | SK-MEL-2 50.8 µM | RXF 393 32 µM | HOP-62 49.1 µM | SK-OV-3 31.8 µM | MCF7 17.1 µM | SF-539 > 100 µM | UACC-62 25.1 µM | Hs-578T > 100 µM | A549 48.3 µM | HOP-92 41.5 µM | OVCAR-4 31.8 µM | CAKI-1 > 91.8 µM | UACC-257 33.3 µM | A498 52 µM

[N-]=[N+]=C(C(=O)OCC#CCOC(=O)C(=[N+]=[N-])S(=O)(=O)c1ccccc1)S(=O)(=O)c1ccccc1
inactive: LOX IMVI > 10 µM | PC-3 > 10 µM | DU-145 > 10 µM | 786-0 > 10 µM | SK-MEL-2 > 10 µM | RXF 393 > 10 µM | HOP-62 > 10 µM | SK-OV-3 > 10 µM | MCF7 > 10 µM | SF-539 > 10 µM | UACC-62 > 10 µM | Hs-578T > 10 µM | A549 > 10 µM | HOP-92 > 10 µM | OVCAR-4 > 10 µM | CAKI-1 > 10 µM | UACC-257 > 10 µM | A498 > 10 µM
active: UO-31 0.2 µM

CC(O)C1(O)C(O)CC(OC2c3cc4c(c(O)c3[C@@H]3C[C@@]2(C)OC32C=c3cc[nH]c3=N2)C(=O)c2cccc(O)c2C4=O)OC1C (stereo not given in full)
active: LOX IMVI 0.555 µM | 786-0 1.04 µM | RXF 393 1.05 µM | HOP-62 1.06 µM | MCF7 0.762 µM | A549 0.433 µM
inactive: UO-31 1.77 µM | PC-3 1.23 µM | DU-145 1.15 µM | SK-MEL-2 1.6 µM | SK-OV-3 1.75 µM | SF-539 1.19 µM | UACC-62 1.31 µM | Hs-578T 1.73 µM | HOP-92 1.64 µM | OVCAR-4 2.38 µM | CAKI-1 1.33 µM | UACC-257 1.48 µM | A498 1.29 µM

Nc1nc(Sc2ccc([N+](=O)[O-])cn2)c2nc[nH]c2n1
inactive: LOX IMVI 2.52 µM | UO-31 3.99 µM | PC-3 14 µM | DU-145 3.32 µM | 786-0 5.74 µM | SK-MEL-2 2.47 µM | RXF 393 2.73 µM | HOP-62 4.6 µM | SK-OV-3 3.95 µM | MCF7 5.89 µM | SF-539 6.24 µM | UACC-62 2.94 µM | Hs-578T 15.3 µM | A549 15.1 µM | HOP-92 3.6 µM | OVCAR-4 9.18 µM | CAKI-1 7.13 µM | UACC-257 18 µM | A498 11.8 µM

ONCCCn1cnc2c(NC3CC3)ncnc21
inactive: LOX IMVI > 100 µM | UO-31 > 100 µM | PC-3 > 100 µM | DU-145 > 100 µM | 786-0 > 100 µM | SK-MEL-2 > 100 µM | RXF 393 > 100 µM | HOP-62 > 100 µM | SK-OV-3 > 100 µM | MCF7 > 100 µM | SF-539 > 100 µM | UACC-62 > 100 µM | Hs-578T > 100 µM | A549 > 100 µM | HOP-92 > 100 µM | OVCAR-4 > 100 µM | CAKI-1 > 100 µM | UACC-257 > 100 µM | A498 > 100 µM

O=C1CCC2(CC1CCSc1ccccc1)OCCO2 (stereo not given)
inactive: LOX IMVI 98.9 µM | UO-31 > 100 µM | PC-3 > 100 µM | DU-145 > 100 µM | 786-0 > 100 µM | SK-MEL-2 > 100 µM | RXF 393 > 100 µM | HOP-62 > 100 µM | SK-OV-3 > 100 µM | MCF7 > 100 µM | SF-539 > 100 µM | UACC-62 > 100 µM | Hs-578T > 100 µM | A549 > 100 µM | HOP-92 > 100 µM | OVCAR-4 > 100 µM | CAKI-1 > 100 µM | UACC-257 > 100 µM | A498 > 100 µM

CN(C)c1ccc(/C=c2/c3ccccc3n3c2cc(/C=C/c2ccccc2)[n+]3C)cc1
active: LOX IMVI 0.12 µM | UO-31 0.344 µM | PC-3 0.0933 µM | DU-145 0.1 µM | 786-0 0.0815 µM | SK-MEL-2 0.282 µM | RXF 393 0.0538 µM | HOP-62 0.0893 µM | SK-OV-3 0.296 µM | MCF7 0.147 µM | SF-539 0.038 µM | UACC-62 0.281 µM | Hs-578T 0.0287 µM | A549 0.0512 µM | HOP-92 0.0358 µM | OVCAR-4 0.286 µM | UACC-257 0.339 µM | A498 0.266 µM
inactive: CAKI-1 1.28 µM

Cc1ccc(C(=O)CC(O)(C(F)(F)F)C(F)(F)F)cc1[N+](=O)[O-]
inactive: LOX IMVI 2.07 µM | UO-31 5.81 µM | PC-3 11.3 µM | DU-145 6.22 µM | 786-0 12.1 µM | SK-MEL-2 13.7 µM | RXF 393 13.8 µM | HOP-62 15.2 µM | SK-OV-3 18.1 µM | MCF7 3.14 µM | SF-539 17 µM | UACC-62 8.55 µM | Hs-578T 9.46 µM | A549 11.1 µM | HOP-92 9.4 µM | OVCAR-4 15.8 µM | CAKI-1 2.36 µM | UACC-257 3.21 µM | A498 21.3 µM

C/C(=N\NC(=S)N(C)C)c1ccccn1
inactive: Hs-578T 3.7 µM
active: LOX IMVI < 0.01 µM | UO-31 0.122 µM | PC-3 < 0.01 µM | DU-145 0.161 µM | 786-0 < 0.0118 µM | SK-MEL-2 0.139 µM | RXF 393 0.41 µM | HOP-62 0.033 µM | SK-OV-3 < 0.0264 µM | MCF7 < 0.01 µM | SF-539 0.231 µM | UACC-62 < 0.0124 µM | A549 0.0413 µM | HOP-92 0.498 µM | OVCAR-4 < 0.01 µM | CAKI-1 0.186 µM | UACC-257 < 0.01 µM | A498 0.519 µM

O=C(/C=C/c1ccc(O)c(O)c1)Oc1ccccc1
inactive: LOX IMVI 4.9 µM | UO-31 7.43 µM | PC-3 17.1 µM | DU-145 13.2 µM | 786-0 10.6 µM | SK-MEL-2 15.7 µM | RXF 393 8.71 µM | HOP-62 15.8 µM | SK-OV-3 45.6 µM | MCF7 12.2 µM | SF-539 10.6 µM | UACC-62 13.2 µM | Hs-578T 14.2 µM | A549 15.3 µM | HOP-92 14.9 µM | OVCAR-4 15.2 µM | CAKI-1 5.85 µM | UACC-257 22.8 µM | A498 55 µM
